Source: article PMC10693528, “A high-throughput metabolomics in vitro platform for the characterization of hepatotoxicity” (Cell Biology and Toxicology, 2023)

Test: Cell viability (ATP, CellTiter-Glo) in parallel with metabolomics experiments
Conditions: human, Percentage of viability (ATP) compared to the vehicle control, n = 6
Description: HepG2 cells (ECACC, UK, maximum passage number 9) were maintained and grown on Dulbecco’s MEM media supplemented with 1% v/v of penicillin/streptomycin, L-glutamine (200 mM, 1% v/v), non-essential amino acids (100x, 1% v/v), and 10% FBS (PAN-Biotech, Aidenbach, Germany) in 75 cm^2 culture flasks (TPP, Switzerland). For cell passaging (~ 80% confluency) media was removed and cells were washed twice with pre-warmed calcium and magnesium free Dulbecco’s PBS (PAN-Biotech, Aidenbach, Germany). Trypsin was used for cell detachment. Then, 20 mL culture medium was added, and single-cell suspensions were obtained by passing the suspension through a Combitip (Eppendorf, Germany). A fraction of the cell suspension was then transferred to a new culture vessel. For experiments, 15,000 cells per well (passage 5-9) were seeded in 96-well flat-bottom plates (TPP, Switzerland) and incubated for 24 h for cell attachment (37 °C and 5% CO^2). Afterwards, culture media were exchanged, test substances applied, and plates incubated for 48 h (37 °C and 5% CO^2).
For each substance, one 96-well plate was set up with 6 replicates per concentration, 12 replicates for vehicle controls (yielding a final concentration of 0.5% DMSO in the well), 6 replicates for positive controls (Bezafibrate 1000 μM), and 6 replicates for blank controls (media without cells). To minimize potential evaporation, the outer rows and columns of the plate were omitted and filled with PBS instead. Reference samples prepared from lyophilized HepG2 cells were measured in parallel throughout the entire analytical process (technical replicates). […] Lyophilized HepG2 cells reference samples were used to account for variability between plates and in concentration series for linearity checks. After 48 h, the assays were stopped by washing the wells once with 100 μL 0.9% NaCl followed by snap freezing the plates on liquid nitrogen for 5 s. Plates were placed immediately on dry ice and 50 μL ice-cooled isopropanol 80% (v/v) were added to quench metabolism and precipitate proteins. Plates were stored at − 80 °C until LC/ MS analysis.

| Structure (SMILES) | viability at 48 h (HepG2 cells, C1, C1, 48 h) | viability at 48 h (HepG2 cells, C2, C2, 48 h) | viability at 48 h (HepG2 cells, C3, C3, 48 h) | viability at 48 h (HepG2 cells, C4, C4, 48 h) | viability at 48 h (HepG2 cells, C5, C5, 48 h) | viability at 48 h (C1, C1, 48 h) | viability at 48 h (C2, C2, 48 h) | viability at 48 h (C3, C3, 48 h) | viability at 48 h (C4, C4, 48 h) | viability at 48 h (C5, C5, 48 h) |
| --- | --- | --- | --- | --- | --- | --- | --- | --- | --- | --- |
| CC(=O)N1CCN(c2ccc(OCC3COC(Cn4ccnc4)(c4ccc(Cl)cc4Cl)O3)cc2)CC1 (stereo not shown) [Ketoconazole] | 102 ± 3.1% | 102 ± 0.9% | 91.2 ± 1.5% | 64.7 ± 1.5% | 28.2 ± 1.9% | – | – | – | – | – |
| O=C(O)c1cc(Oc2ccc(C(F)(F)F)cc2Cl)ccc1[N+](=O)[O-] [Acifluorfen] | 105 ± 4.2% | 105 ± 4.8% | 99.9 ± 1.3% | 58.4 ± 1.5% | 27.8 ± 1.3% | – | – | – | – | – |
| O=c1cc(-c2ccccc2)oc2ccc3ccccc3c12 [β-naphthoflavone] | 103 ± 4.3% | 114 ± 3.7% | 104 ± 1.6% | 34.5 ± 3.4% | 15 ± 2.1% | – | – | – | – | – |
| CCC(CC)Nc1c([N+](=O)[O-])cc(C)c(C)c1[N+](=O)[O-] [Pendimethalin] | – | – | – | – | – | 98.3 ± 3.9% | 100 ± 2.9% | 82.4 ± 4.9% | 36.1 ± 3.2% | 18.5 ± 3.2% |
| Cc1cccc(Nc2cc(Cl)nc(SCC(=O)O)n2)c1C [Wy-14643] | 101 ± 3.8% | 97.1 ± 3.1% | 94.6 ± 1.8% | 46.4 ± 2% | 23.2 ± 1.1% | – | – | – | – | – |
